Test results published in PubChem BioAssay AID2060892 (Molecular Pharmacology Branch, DTP, NCI, 2025).
Values joined by “and” are separate entries in the source; they are usually repeats but may differ in a detail not shown here. Equal values may be shown once.

System: HOP-62 complex spheroids with HUVEC/MSC, viability
Assay: Anticancer human tumor HOP-62 cell line growth inhibition [RAS];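 further: spheroids exposed to agents for seven days before readout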;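 on viability, T/C: 100% = DMSO vehicle control viability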
Conditions: for IC50: curve of first compound; for viability, T/C: stronger effect = lower value
Outline: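 Agents were tested in combination matrices in half-log decrements from a top concentration at or near clinical Cmax (10 microM if undetermined). Targets were multi-cell spheroids of tumour lines plus HUVEC and MSC stromal cells.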

[1] = second compound 0.000949 µM, first compound 0.0316 µM
[2] = second compound 0.000949 µM, first compound 0.1 µM
[3] = second compound 0.000949 µM, first compound 0.316 µM
[4] = second compound 0.000949 µM, first compound 1 µM
[5] = second compound 0.003 µM, first compound 0.0316 µM
[6] = second compound 0.003 µM, first compound 0.1 µM
[7] = second compound 0.003 µM, first compound 0.316 µM
[8] = second compound 0.003 µM, first compound 1 µM
[9] = second compound 0.00949 µM, first compound 0.0316 µM
[10] = second compound 0.00949 µM, first compound 0.1 µM
[11] = second compound 0.00949 µM, first compound 0.316 µM
[12] = second compound 0.00949 µM, first compound 1 µM
[13] = second compound 0.03 µM, first compound 0.0316 µM
[14] = second compound 0.03 µM, first compound 0.1 µM
[15] = second compound 0.03 µM, first compound 0.316 µM
[16] = second compound 0.03 µM, first compound 1 µM
[17] = second compound 0.0949 µM, first compound 0.0316 µM
[18] = second compound 0.0949 µM, first compound 0.1 µM
[19] = second compound 0.0949 µM, first compound 0.316 µM
[20] = second compound 0.0949 µM, first compound 1 µM
[21] = second compound 0.3 µM, first compound 0.0316 µM
[22] = second compound 0.3 µM, first compound 0.1 µM
[23] = second compound 0.3 µM, first compound 0.316 µM
[24] = second compound 0.3 µM, first compound 1 µM

In the case of `CCc1c2c(nc3ccc(O)cc13)-c1cc3c(c(=O)n1C2)COC(=O)[C@]3(O)CC` + C#Cc1c(F)ccc2cc(O)cc(-c3ncc4c(N5CC6CCC(C5)N6)nc(OCC56CCCN5CC(F)C6)nc4c3F)c12, the IC50 (second compound 0.0316 µM) is reported as 0.00114 µM, the IC50 (second compound 0.1 µM) is reported as 0.00131 µM and the IC50 (second compound 0.316 µM) is reported as 0.00119 µM. The IC50 (second compound 1 µM) was 0.00123 µM, the IC50 (second compound 3.16 µM) was 0.000972 µM and the IC50 (second compound 10 µM) was < 0.000949 µM. The viability, T/C (second compound 0.0316 µM, first compound 0.000949 µM) was 56.3%, the viability, T/C (second compound 0.0316 µM, first compound 0.003 µM) was 16.6% and the viability, T/C (second compound 0.0316 µM, first compound 0.00949 µM) was 11.4%. For the same molecule, the viability, T/C (second compound 0.0316 µM, first compound 0.03 µM) was 5.6%, the viability, T/C (second compound 0.0316 µM, first compound 0.0949 µM) was 3.66% and the viability, T/C (second compound 0.0316 µM, first compound 0.3 µM) was 2.78%. For the same molecule, the viability, T/C (second compound 0.1 µM, first compound 0.000949 µM) was 62.9%, the viability, T/C (second compound 0.1 µM, first compound 0.003 µM) was 15.6% and the viability, T/C (second compound 0.1 µM, first compound 0.00949 µM) was 10.1%. For the same molecule, the viability, T/C (second compound 0.1 µM, first compound 0.03 µM) was 4.19%, the viability, T/C (second compound 0.1 µM, first compound 0.0949 µM) was 5.31% and the viability, T/C (second compound 0.1 µM, first compound 0.3 µM) was 3.12%. The viability, T/C (second compound 0.316 µM, first compound 0.000949 µM) was 59.1%, the viability, T/C (second compound 0.316 µM, first compound 0.003 µM) was 13.8% and the viability, T/C (second compound 0.316 µM, first compound 0.00949 µM) was 8.76%. The viability, T/C (second compound 0.316 µM, first compound 0.03 µM) was 5.75%, the viability, T/C (second compound 0.316 µM, first compound 0.0949 µM) was 3.69% and the viability, T/C (second compound 0.316 µM, first compound 0.3 µM) was 3.17%. It also gave a viability, T/C (second compound 1 µM, first compound 0.000949 µM) of 60.8%, a viability, T/C (second compound 1 µM, first compound 0.003 µM) of 12.7% and a viability, T/C (second compound 1 µM, first compound 0.00949 µM) of 7.48%. For the same molecule, the viability, T/C (second compound 1 µM, first compound 0.03 µM) was 3.47%, the viability, T/C (second compound 1 µM, first compound 0.0949 µM) was 3.07% and the viability, T/C (second compound 1 µM, first compound 0.3 µM) was 2.06%. For the same molecule, the viability, T/C (second compound 3.16 µM, first compound 0.000949 µM) was 51.1%, the viability, T/C (second compound 3.16 µM, first compound 0.003 µM) was 10.9% and the viability, T/C (second compound 3.16 µM, first compound 0.00949 µM) was 6.45%. It also gave a viability, T/C (second compound 3.16 µM, first compound 0.03 µM) of 3.95%, a viability, T/C (second compound 3.16 µM, first compound 0.0949 µM) of 2.84% and a viability, T/C (second compound 3.16 µM, first compound 0.3 µM) of 2.67%. The viability, T/C (second compound 10 µM, first compound 0.000949 µM) was 26.9%, the viability, T/C (second compound 10 µM, first compound 0.003 µM) was 11.7% and the viability, T/C (second compound 10 µM, first compound 0.00949 µM) was 8.96%. The viability, T/C (second compound 10 µM, first compound 0.03 µM) was 4.94%, the viability, T/C (second compound 10 µM, first compound 0.0949 µM) was 5.28% and the viability, T/C (second compound 10 µM, first compound 0.3 µM) was 3.97%.

`CCC(CC)c1cc(NC2CCC(N)C2)n2nccc2n1` (stereo not given) + CCn1c(-c2cc(N3CCN(C)CC3)cnc2C(C)OC)c2c3cc(ccc31)-c1csc(n1)CC(NC(=O)C1CC1C)C(=O)N1CCCC(N1)C(=O)OCC(C)(C)C2 showed an IC50 (second compound 0.000949 µM) of 2.04 µM, an IC50 (second compound 0.003 µM) of 1.89 µM and an IC50 (second compound 0.00949 µM) of 1.56 µM. For the same molecule, the IC50 (second compound 0.03 µM) was 1.27 µM, the IC50 (second compound 0.0949 µM) was 1.02 µM and the IC50 (second compound 0.3 µM) was 0.0316 µM. It also gave a viability, T/C [1] of 116%, a viability, T/C [2] of 125% and a viability, T/C [3] of 94.3%. For the same molecule, the viability, T/C [4] was 128%, the viability, T/C (second compound 0.000949 µM, first compound 3.16 µM) was 9.48% and the viability, T/C (second compound 0.000949 µM, first compound 10 µM) was 1.8%. The viability, T/C [5] was 91.4%, the viability, T/C [6] was 99.2% and the viability, T/C [7] was 91.5%. The viability, T/C [8] was 121%, the viability, T/C (second compound 0.003 µM, first compound 3.16 µM) was 8.75% and the viability, T/C (second compound 0.003 µM, first compound 10 µM) was 1.01%. For the same molecule, the viability, T/C [9] was 74.9%, the viability, T/C [10] was 63.3% and the viability, T/C [11] was 80%. The viability, T/C [12] was 93.5%, the viability, T/C (second compound 0.00949 µM, first compound 3.16 µM) was 5.73% and the viability, T/C (second compound 0.00949 µM, first compound 10 µM) was 0.77%. It also gave a viability, T/C [13] of 54%, a viability, T/C [14] of 56.3% and a viability, T/C [15] of 57.9%. For the same molecule, the viability, T/C [16] was 81.2%, the viability, T/C (second compound 0.03 µM, first compound 3.16 µM) was 2.62% and the viability, T/C (second compound 0.03 µM, first compound 10 µM) was 0.93%. It also gave a viability, T/C [17] of 40.1%, a viability, T/C [18] of 49.5% and a viability, T/C [19] of 52.8%. The viability, T/C [20] was 61.5%, the viability, T/C (second compound 0.0949 µM, first compound 3.16 µM) was 2.26% and the viability, T/C (second compound 0.0949 µM, first compound 10 µM) was 2.34%. For the same molecule, the viability, T/C [21] was 33.1%, the viability, T/C [22] was 43.1% and the viability, T/C [23] was 47.9%. For the same molecule, the viability, T/C [24] was 50.8%, the viability, T/C (second compound 0.3 µM, first compound 3.16 µM) was 6.58% and the viability, T/C (second compound 0.3 µM, first compound 10 µM) was 1.42%.

For `CC(C)n1nc(-c2ccc3oc(N)nc3c2)c2c(N)ncnc21`, the viability, T/C (compound 0.000316 µM) was 105% [middle of 4 runs], the viability, T/C (compound 0.001 µM) was 97.4% [middle of 4 runs] and the viability, T/C (compound 0.00316 µM) was 93.7% [middle of 4 runs]. For the same molecule, the viability, T/C (compound 0.01 µM) was 98.7% and 65.8% and 66.1%.

`C=CC(=O)N1CCN(c2nc(OCC3CCCN3C)nc3c(F)c(-c4nc(N)cc(C)c4C(F)(F)F)c(Cl)cc23)C(C)C1` (stereo not given) + CCn1c(-c2cc(N3CCN(C)CC3)cnc2C(C)OC)c2c3cc(ccc31)-c1csc(n1)CC(NC(=O)C1CC1C)C(=O)N1CCCC(N1)C(=O)OCC(C)(C)C2 was tested, and the IC50 (second compound 0.000949 µM) was > 1 µM, the IC50 (second compound 0.003 µM) was > 1 µM and the IC50 (second compound 0.00949 µM) was > 1 µM. For the same molecule, the IC50 (second compound 0.03 µM) was < 0.00316 µM, the IC50 (second compound 0.0949 µM) was < 0.00316 µM and the IC50 (second compound 0.3 µM) was < 0.00316 µM. It also gave a viability, T/C (second compound 0.000949 µM, first compound 0.00316 µM) of 92.6%, a viability, T/C (second compound 0.000949 µM, first compound 0.01 µM) of 85.2% and a viability, T/C [1] of 66.2%. The viability, T/C [2] was 88.2%, the viability, T/C [3] was 84% and the viability, T/C [4] was 66.1%. For the same molecule, the viability, T/C (second compound 0.003 µM, first compound 0.00316 µM) was 75.6%, the viability, T/C (second compound 0.003 µM, first compound 0.01 µM) was 75.9% and the viability, T/C [5] was 69.2%. For the same molecule, the viability, T/C [6] was 74.2%, the viability, T/C [7] was 78.5% and the viability, T/C [8] was 54.5%. It also gave a viability, T/C (second compound 0.00949 µM, first compound 0.00316 µM) of 70.7%, a viability, T/C (second compound 0.00949 µM, first compound 0.01 µM) of 52.2% and a viability, T/C [9] of 52.9%. For the same molecule, the viability, T/C [10] was 59.8%, the viability, T/C [11] was 49.7% and the viability, T/C [12] was 46.1%. The viability, T/C (second compound 0.03 µM, first compound 0.00316 µM) was 46.8%, the viability, T/C (second compound 0.03 µM, first compound 0.01 µM) was 43.2% and the viability, T/C [13] was 43.5%. The viability, T/C [14] was 32.2%, the viability, T/C [15] was 31.3% and the viability, T/C [16] was 38.5%. It also gave a viability, T/C (second compound 0.0949 µM, first compound 0.00316 µM) of 35.6%, a viability, T/C (second compound 0.0949 µM, first compound 0.01 µM) of 37.1% and a viability, T/C [17] of 34%. The viability, T/C [18] was 36.7%, the viability, T/C [19] was 29.2% and the viability, T/C [20] was 27.2%. The viability, T/C (second compound 0.3 µM, first compound 0.00316 µM) was 39.4%, the viability, T/C (second compound 0.3 µM, first compound 0.01 µM) was 52.7% and the viability, T/C [21] was 37.7%. For the same molecule, the viability, T/C [22] was 28.8%, the viability, T/C [23] was 31.7% and the viability, T/C [24] was 31.6%.
